# Experiments:
# Boiling point (Table 1) = assay type: physicochemical
# [1] = pKa of the alkanolamines (Table 1); assay type: physicochemical
Compound,Boiling point (Boiling point (Table 1)) [° F.],pKa [1]
"CN(C)C(CO)(CO)CO [DMTA, 2-dimethylamino-2-hydroxymethyl-1,3-propanediol]",335,
"OCCNCCO [DEA, diethanolamine]",268,
"NCCOCCO [DGA, 2-aminoethoxyethanol]",221,9.4

# Source: US10286356B2, “Process for the removal of acid gases from gaseous mixtures using an aqueous solution of 2-dimethylamino-2-hydroxymethyl-1, 3-propanediol” (Dow Global Technologies LLC, priority 2014, dated 2019)
